Legend:
Human melanocortin (MC5) = target: T1, Human melanocortin (MC5) (Homo sapiens, UniProt P33032); assay: Radioligand binding, human melanocortin MC5 membranes, FlashPlate, [125I]-NDP-αMSH; conditions: compound at 10 μM; [125I]-NDP-αMSH
T1 construct: purchased Perkin Elmer Biosignal
How it was run: (§1)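 Cloned human receptor membranes were coated onto FlashPlate wells and incubated with radioligand and compound (added from a 0.5 mM DMSO daughter plate) for 1 hour at room temperature in the dark. Scintillation counting gave percent inhibition, with DMSO defining total and reference ligand defining non-specific binding.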

[1] = target: T2, Human neuropeptide Y (NPY-Y1) (Homo sapiens, UniProt P25929); assay: Radioligand binding, human neuropeptide Y NPY-Y1 membranes, FlashPlate, [125I]-PYY; conditions: compound at 10 μM; [125I]-PYY
T2 construct: purchased Perkin Elmer Biosignal
T2 sequence (P25929 1-384): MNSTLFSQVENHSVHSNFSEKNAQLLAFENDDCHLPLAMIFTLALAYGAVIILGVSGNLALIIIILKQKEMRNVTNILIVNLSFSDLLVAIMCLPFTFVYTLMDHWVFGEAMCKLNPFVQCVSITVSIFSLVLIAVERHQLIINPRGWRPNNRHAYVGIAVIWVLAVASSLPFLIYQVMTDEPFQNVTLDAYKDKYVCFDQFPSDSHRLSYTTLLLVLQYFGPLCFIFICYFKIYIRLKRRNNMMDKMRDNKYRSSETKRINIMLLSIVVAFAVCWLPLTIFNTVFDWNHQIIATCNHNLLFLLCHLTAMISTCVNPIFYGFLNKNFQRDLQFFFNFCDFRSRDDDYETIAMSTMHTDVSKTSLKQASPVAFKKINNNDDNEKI
How it was run: as §1

Human neurokinin (NK1) = target: T3, Human neurokinin (NK1) (Homo sapiens, UniProt P25103); assay: Radioligand binding, human neurokinin NK1 membranes, filtration, [125I]-Substance P; conditions: compound at 10 μM; [125I]-Substance P
T3 construct: purchased Perkin Elmer Biosignal
How it was run: (§2)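 Membranes from cloned human receptors were incubated with compound and radioligand for 1 hour at room temperature. Bound ligand was collected on 0.3% PEI-soaked filters, washed with cold 50 mM Tris-HCl pH 7.4, and counted by scintillation. Percent inhibition was computed against DMSO totals and reference-ligand nonspecific wells.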

Human Melanocortin (MC3) = target: T4, Human Melanocortin (MC3) (Homo sapiens, UniProt P41968); assay: Radioligand binding, human melanocortin MC3 membranes, FlashPlate, [125I]-NDP-αMSH; conditions: compound at 10 μM; [125I]-NDP-αMSH
T4 construct: purchased Perkin Elmer Biosignal
How it was run: as §1

[2] = target: T5, Human melanin-concentrating hormone (MCH1) (Homo sapiens, UniProt Q99705); assay: Radioligand binding, human melanin-concentrating hormone MCH1 membranes, FlashPlate, [125I]-S36057; conditions: compound at 10 μM; [125I]-S36057
T5 construct: purchased Perkin Elmer Biosignal
How it was run: as §1

Human δ-opioid (DOP) = target: T6, Human δ-opioid (DOP) (Homo sapiens, UniProt P41143); assay: Radioligand binding, human δ-opioid (DOP) membranes, FlashPlate, [3H]-Bremazocine; conditions: compound at 10 μM; [3H]-Bremazocine
T6 construct: purchased Perkin Elmer Biosignal
How it was run: as §1

Human opioid (ORL1) = target: T7, Human opioid (ORL1) (Homo sapiens, UniProt P41146); assay: Radioligand binding, human opioid ORL1 membranes, FlashPlate, [125I]-Nociceptin; conditions: compound at 10 μM; [125I]-Nociceptin
T7 construct: purchased Perkin Elmer Biosignal
How it was run: as §1

Mouse urotensin (mUR2) = target: T8, Mouse urotensin (mUR2) (Mus musculus, UniProt Q8VIH9); assay: Radioligand binding, mouse urotensin mUR2 membranes, FlashPlate, [125I]-Urotensin II; conditions: compound at 10 μM; [125I]-Urotensin II
T8 construct: purchased Perkin Elmer Biosignal
T8 sequence (Q8VIH9 1-385): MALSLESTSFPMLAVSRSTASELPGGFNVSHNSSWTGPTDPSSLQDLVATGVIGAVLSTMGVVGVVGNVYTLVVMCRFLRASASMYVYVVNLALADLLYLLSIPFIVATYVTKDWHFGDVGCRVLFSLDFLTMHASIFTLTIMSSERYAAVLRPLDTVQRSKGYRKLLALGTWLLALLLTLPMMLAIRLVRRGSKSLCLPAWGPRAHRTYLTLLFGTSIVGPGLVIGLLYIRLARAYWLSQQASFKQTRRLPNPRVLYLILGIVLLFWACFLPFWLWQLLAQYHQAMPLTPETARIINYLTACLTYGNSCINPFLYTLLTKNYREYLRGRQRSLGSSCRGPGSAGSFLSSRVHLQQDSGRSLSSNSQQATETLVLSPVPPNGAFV
How it was run: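 Cloned mouse urotensin (mUR2) receptor membranes from Perkin Elmer Biosignal were immobilized in FlashPlate microplates using a proprietary coating. Each well got 19.5 μl buffer, then 0.5 μl of DMSO, reference ligand, or compound. Adding 5 μl of [125I]-Urotensin II, diluted to 5× final concentration in binding buffer, started binding. Plates were sealed with TopSeal-A and incubated 1 hour at room temperature in the dark. Wells were counted for 30 seconds each on a TopCount after a 60-second delay, and percentage inhibition was calculated.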

Human μ-opioid (MOP) = target: T9, Human μ-opioid (MOP) (Homo sapiens, UniProt P35372); assay: Radioligand binding, human μ-opioid (MOP) membranes, FlashPlate, [3H]-Naloxone; conditions: compound at 10 μM; [3H]-Naloxone
T9 construct: purchased Perkin Elmer Biosignal
How it was run: as §1

Human κ-Opioid (KOP) = target: T10, Human κ-Opioid (KOP) (Homo sapiens, UniProt P41145); assay: Radioligand binding, human κ-opioid (KOP) membranes, filtration, [3H]-Diprenorphine; conditions: compound at 10 μM; [3H]-Diprenorphine
T10 construct: purchased Perkin Elmer Biosignal
How it was run: as §2

Human Melanocortin (MC4) = target: T11, Human Melanocortin (MC4) (Homo sapiens, UniProt P32245); assay: Radioligand binding, human melanocortin MC4 membranes, FlashPlate, [125I]-NDP-αMSH; conditions: compound at 10 μM; [125I]-NDP-αMSH
T11 construct: purchased Perkin Elmer Biosignal
How it was run: as §1

T5 sequence (Q99705 whole entry): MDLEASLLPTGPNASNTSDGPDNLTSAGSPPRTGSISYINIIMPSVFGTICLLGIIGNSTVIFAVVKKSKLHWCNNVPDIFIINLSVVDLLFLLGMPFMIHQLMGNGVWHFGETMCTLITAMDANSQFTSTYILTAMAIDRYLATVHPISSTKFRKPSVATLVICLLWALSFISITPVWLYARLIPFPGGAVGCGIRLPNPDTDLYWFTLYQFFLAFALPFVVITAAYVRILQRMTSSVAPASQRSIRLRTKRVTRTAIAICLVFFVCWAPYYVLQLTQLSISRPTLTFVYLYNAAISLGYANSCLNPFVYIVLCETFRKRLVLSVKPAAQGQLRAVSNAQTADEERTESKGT
T6 sequence (P41143 whole entry): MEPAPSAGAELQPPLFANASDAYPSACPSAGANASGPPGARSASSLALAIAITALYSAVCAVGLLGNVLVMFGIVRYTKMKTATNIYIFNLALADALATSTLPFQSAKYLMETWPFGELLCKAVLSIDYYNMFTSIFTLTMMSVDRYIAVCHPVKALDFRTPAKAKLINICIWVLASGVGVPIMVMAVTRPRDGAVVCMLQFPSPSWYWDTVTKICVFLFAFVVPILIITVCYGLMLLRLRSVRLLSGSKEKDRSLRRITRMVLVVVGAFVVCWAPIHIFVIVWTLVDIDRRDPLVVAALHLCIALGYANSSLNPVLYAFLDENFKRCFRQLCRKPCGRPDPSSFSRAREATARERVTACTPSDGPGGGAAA
T4 sequence (P41968 whole entry): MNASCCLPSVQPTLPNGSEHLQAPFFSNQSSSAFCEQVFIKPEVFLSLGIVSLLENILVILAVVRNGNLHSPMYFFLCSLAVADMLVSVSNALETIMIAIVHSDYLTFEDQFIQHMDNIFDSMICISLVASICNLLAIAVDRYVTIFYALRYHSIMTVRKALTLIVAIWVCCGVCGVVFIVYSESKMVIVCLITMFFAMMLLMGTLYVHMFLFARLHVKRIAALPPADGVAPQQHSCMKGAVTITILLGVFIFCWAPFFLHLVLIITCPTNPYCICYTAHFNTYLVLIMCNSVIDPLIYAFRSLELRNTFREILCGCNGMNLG
T9 sequence (P35372 whole entry): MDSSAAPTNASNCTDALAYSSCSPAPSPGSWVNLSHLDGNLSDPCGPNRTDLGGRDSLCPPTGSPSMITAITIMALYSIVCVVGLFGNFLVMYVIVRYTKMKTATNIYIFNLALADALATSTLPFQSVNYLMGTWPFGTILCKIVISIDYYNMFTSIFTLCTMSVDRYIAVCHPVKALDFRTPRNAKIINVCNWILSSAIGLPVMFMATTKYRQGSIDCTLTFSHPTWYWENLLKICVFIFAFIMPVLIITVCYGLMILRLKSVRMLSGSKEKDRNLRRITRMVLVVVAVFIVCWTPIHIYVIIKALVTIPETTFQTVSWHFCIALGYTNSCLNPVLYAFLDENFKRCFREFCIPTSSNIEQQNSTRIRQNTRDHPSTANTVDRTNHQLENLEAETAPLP
T10 sequence (P41145 whole entry): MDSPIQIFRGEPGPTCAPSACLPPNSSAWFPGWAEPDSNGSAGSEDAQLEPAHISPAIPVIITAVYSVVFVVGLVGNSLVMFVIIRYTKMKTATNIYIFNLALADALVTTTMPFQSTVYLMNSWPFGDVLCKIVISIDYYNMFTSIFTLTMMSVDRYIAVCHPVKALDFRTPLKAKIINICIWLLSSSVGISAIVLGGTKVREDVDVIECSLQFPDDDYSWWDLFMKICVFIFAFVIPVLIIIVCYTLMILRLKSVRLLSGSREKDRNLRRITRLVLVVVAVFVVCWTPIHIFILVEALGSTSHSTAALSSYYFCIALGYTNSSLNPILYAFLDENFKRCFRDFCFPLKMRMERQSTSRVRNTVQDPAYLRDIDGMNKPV
T7 sequence (P41146 whole entry): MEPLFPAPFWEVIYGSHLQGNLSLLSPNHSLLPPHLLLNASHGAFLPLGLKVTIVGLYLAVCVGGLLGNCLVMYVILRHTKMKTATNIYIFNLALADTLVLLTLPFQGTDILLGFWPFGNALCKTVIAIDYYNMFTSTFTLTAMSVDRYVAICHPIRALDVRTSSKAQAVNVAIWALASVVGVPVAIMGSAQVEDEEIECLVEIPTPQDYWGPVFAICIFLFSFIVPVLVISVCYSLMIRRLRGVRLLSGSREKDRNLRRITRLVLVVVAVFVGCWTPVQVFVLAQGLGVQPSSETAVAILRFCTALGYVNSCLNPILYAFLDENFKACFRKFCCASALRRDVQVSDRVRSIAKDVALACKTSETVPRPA
T11 sequence (P32245 whole entry): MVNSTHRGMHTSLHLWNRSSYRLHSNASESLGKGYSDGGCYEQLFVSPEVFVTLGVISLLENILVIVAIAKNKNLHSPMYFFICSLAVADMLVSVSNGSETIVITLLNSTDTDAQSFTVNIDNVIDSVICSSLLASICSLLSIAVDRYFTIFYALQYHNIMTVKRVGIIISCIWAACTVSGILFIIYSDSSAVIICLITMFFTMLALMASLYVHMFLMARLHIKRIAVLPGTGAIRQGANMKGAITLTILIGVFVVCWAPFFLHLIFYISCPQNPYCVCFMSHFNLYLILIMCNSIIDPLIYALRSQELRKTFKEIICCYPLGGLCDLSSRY
T1 sequence (P33032 whole entry): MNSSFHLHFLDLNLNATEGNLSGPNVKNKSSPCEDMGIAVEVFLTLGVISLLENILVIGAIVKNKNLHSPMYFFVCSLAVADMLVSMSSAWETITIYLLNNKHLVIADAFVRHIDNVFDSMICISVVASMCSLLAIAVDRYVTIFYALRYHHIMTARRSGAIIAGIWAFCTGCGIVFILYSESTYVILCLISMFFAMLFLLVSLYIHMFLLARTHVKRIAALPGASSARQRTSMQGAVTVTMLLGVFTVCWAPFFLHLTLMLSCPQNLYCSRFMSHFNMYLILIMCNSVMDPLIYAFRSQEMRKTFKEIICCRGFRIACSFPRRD
T3 sequence (P25103 whole entry): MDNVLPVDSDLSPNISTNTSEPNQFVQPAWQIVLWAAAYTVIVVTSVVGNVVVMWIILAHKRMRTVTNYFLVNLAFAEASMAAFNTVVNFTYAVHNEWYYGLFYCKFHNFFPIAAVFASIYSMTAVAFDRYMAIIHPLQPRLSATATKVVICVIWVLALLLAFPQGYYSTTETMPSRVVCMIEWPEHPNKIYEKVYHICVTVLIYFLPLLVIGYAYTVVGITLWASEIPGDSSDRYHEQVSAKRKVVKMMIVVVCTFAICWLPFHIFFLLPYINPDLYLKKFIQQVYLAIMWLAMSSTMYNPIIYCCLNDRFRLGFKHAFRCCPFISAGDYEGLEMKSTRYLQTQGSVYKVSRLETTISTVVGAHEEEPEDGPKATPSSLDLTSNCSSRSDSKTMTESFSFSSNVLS

CO[C@H]1[C@H](O)[C@@H](COCc2ccc(Cl)cc2)OC(OCCc2ccccc2)[C@@H]1NC(=O)CCNC(=N)N (stereo partly shown) [compound 120]
A5 radioligand binding, percentage inhibition (Human melanocortin (MC5)): + (“+” indicates greater than 50% inhibition at 10 μM)
A9 radioligand binding, percentage inhibition [1]: − (“−” indicates less than 50% inhibition at 10 μM)
A8 radioligand binding, percentage inhibition (Human neurokinin (NK1)): + (“+” indicates greater than 50% inhibition at 10 μM)
A3 radioligand binding, percentage inhibition (Human Melanocortin (MC3)): − (“−” indicates less than 50% inhibition at 10 μM)
A6 radioligand binding, percentage inhibition [2]: − (“−” indicates less than 50% inhibition at 10 μM)
A1 radioligand binding, percentage inhibition (Human δ-opioid (DOP)): − (“−” indicates less than 50% inhibition at 10 μM)
A10 radioligand binding, percentage inhibition (Human opioid (ORL1)): − (“−” indicates less than 50% inhibition at 10 μM)
A11 radioligand binding, percentage inhibition (Mouse urotensin (mUR2)): − (“−” indicates less than 50% inhibition at 10 μM)
A7 radioligand binding, percentage inhibition (Human μ-opioid (MOP)): − (“−” indicates less than 50% inhibition at 10 μM)
A2 radioligand binding, percentage inhibition (Human κ-Opioid (KOP)): + (“+” indicates greater than 50% inhibition at 10 μM)
A4 radioligand binding, percentage inhibition (Human Melanocortin (MC4)): + (“+” indicates greater than 50% inhibition at 10 μM)

CO[C@H]1[C@H](O)[C@@H](COCc2ccc(Cl)cc2)OC(OCCc2ccccc2)[C@@H]1NC(=O)CCCN (stereo partly shown) [compound 121]
A5 radioligand binding, percentage inhibition (Human melanocortin (MC5)): + (“+” indicates greater than 50% inhibition at 10 μM)
A9 radioligand binding, percentage inhibition [1]: − (“−” indicates less than 50% inhibition at 10 μM)
A8 radioligand binding, percentage inhibition (Human neurokinin (NK1)): + (“+” indicates greater than 50% inhibition at 10 μM)
A3 radioligand binding, percentage inhibition (Human Melanocortin (MC3)): − (“−” indicates less than 50% inhibition at 10 μM)
A6 radioligand binding, percentage inhibition [2]: − (“−” indicates less than 50% inhibition at 10 μM)
A1 radioligand binding, percentage inhibition (Human δ-opioid (DOP)): − (“−” indicates less than 50% inhibition at 10 μM)
A10 radioligand binding, percentage inhibition (Human opioid (ORL1)): − (“−” indicates less than 50% inhibition at 10 μM)
A11 radioligand binding, percentage inhibition (Mouse urotensin (mUR2)): − (“−” indicates less than 50% inhibition at 10 μM)
A7 radioligand binding, percentage inhibition (Human μ-opioid (MOP)): − (“−” indicates less than 50% inhibition at 10 μM)
A2 radioligand binding, percentage inhibition (Human κ-Opioid (KOP)): − (“−” indicates less than 50% inhibition at 10 μM)
A4 radioligand binding, percentage inhibition (Human Melanocortin (MC4)): − (“−” indicates less than 50% inhibition at 10 μM)

CO[C@H]1[C@H](O)[C@@H](COCc2ccc(Cl)cc2)OC(OCCc2ccccc2)[C@@H]1NC(=O)CCCNC(=N)N (stereo partly shown) [compound 122]
A5 radioligand binding, percentage inhibition (Human melanocortin (MC5)): + (“+” indicates greater than 50% inhibition at 10 μM)
A9 radioligand binding, percentage inhibition [1]: − (“−” indicates less than 50% inhibition at 10 μM)
A8 radioligand binding, percentage inhibition (Human neurokinin (NK1)): + (“+” indicates greater than 50% inhibition at 10 μM)
A3 radioligand binding, percentage inhibition (Human Melanocortin (MC3)): − (“−” indicates less than 50% inhibition at 10 μM)
A6 radioligand binding, percentage inhibition [2]: − (“−” indicates less than 50% inhibition at 10 μM)
A1 radioligand binding, percentage inhibition (Human δ-opioid (DOP)): − (“−” indicates less than 50% inhibition at 10 μM)
A10 radioligand binding, percentage inhibition (Human opioid (ORL1)): − (“−” indicates less than 50% inhibition at 10 μM)
A11 radioligand binding, percentage inhibition (Mouse urotensin (mUR2)): − (“−” indicates less than 50% inhibition at 10 μM)
A7 radioligand binding, percentage inhibition (Human μ-opioid (MOP)): − (“−” indicates less than 50% inhibition at 10 μM)
A2 radioligand binding, percentage inhibition (Human κ-Opioid (KOP)): − (“−” indicates less than 50% inhibition at 10 μM)
A4 radioligand binding, percentage inhibition (Human Melanocortin (MC4)): + (“+” indicates greater than 50% inhibition at 10 μM)

COC[C@H]1OC(OCCNC(=N)N)[C@H](NC(=O)c2ccccc2)[C@@H](OCc2ccc3ccccc3c2)[C@@H]1O (stereo partly shown) [compound 123]
A5 radioligand binding, percentage inhibition (Human melanocortin (MC5)): + (“+” indicates greater than 50% inhibition at 10 μM)
A9 radioligand binding, percentage inhibition [1]: − (“−” indicates less than 50% inhibition at 10 μM)
A8 radioligand binding, percentage inhibition (Human neurokinin (NK1)): + (“+” indicates greater than 50% inhibition at 10 μM)
A3 radioligand binding, percentage inhibition (Human Melanocortin (MC3)): − (“−” indicates less than 50% inhibition at 10 μM)
A6 radioligand binding, percentage inhibition [2]: − (“−” indicates less than 50% inhibition at 10 μM)
A1 radioligand binding, percentage inhibition (Human δ-opioid (DOP)): − (“−” indicates less than 50% inhibition at 10 μM)
A10 radioligand binding, percentage inhibition (Human opioid (ORL1)): − (“−” indicates less than 50% inhibition at 10 μM)
A11 radioligand binding, percentage inhibition (Mouse urotensin (mUR2)): − (“−” indicates less than 50% inhibition at 10 μM)
A7 radioligand binding, percentage inhibition (Human μ-opioid (MOP)): − (“−” indicates less than 50% inhibition at 10 μM)
A2 radioligand binding, percentage inhibition (Human κ-Opioid (KOP)): − (“−” indicates less than 50% inhibition at 10 μM)
A4 radioligand binding, percentage inhibition (Human Melanocortin (MC4)): − (“−” indicates less than 50% inhibition at 10 μM)

CO[C@H]1[C@H](O)[C@@H](COCc2ccc3ccccc3c2)OC(OCCNC(=N)N)[C@@H]1NC(=O)c1ccccc1 (stereo partly shown) [compound 124]
A5 radioligand binding, percentage inhibition (Human melanocortin (MC5)): + (“+” indicates greater than 50% inhibition at 10 μM)
A9 radioligand binding, percentage inhibition [1]: − (“−” indicates less than 50% inhibition at 10 μM)
A8 radioligand binding, percentage inhibition (Human neurokinin (NK1)): + (“+” indicates greater than 50% inhibition at 10 μM)
A3 radioligand binding, percentage inhibition (Human Melanocortin (MC3)): − (“−” indicates less than 50% inhibition at 10 μM)
A6 radioligand binding, percentage inhibition [2]: − (“−” indicates less than 50% inhibition at 10 μM)
A1 radioligand binding, percentage inhibition (Human δ-opioid (DOP)): − (“−” indicates less than 50% inhibition at 10 μM)
A10 radioligand binding, percentage inhibition (Human opioid (ORL1)): − (“−” indicates less than 50% inhibition at 10 μM)
A11 radioligand binding, percentage inhibition (Mouse urotensin (mUR2)): − (“−” indicates less than 50% inhibition at 10 μM)
A7 radioligand binding, percentage inhibition (Human μ-opioid (MOP)): − (“−” indicates less than 50% inhibition at 10 μM)
A2 radioligand binding, percentage inhibition (Human κ-Opioid (KOP)): − (“−” indicates less than 50% inhibition at 10 μM)
A4 radioligand binding, percentage inhibition (Human Melanocortin (MC4)): − (“−” indicates less than 50% inhibition at 10 μM)

From patent US20080009418A1, “Selective Inhibitors” (Alchemia LTD., priority 2004, published 2008)
